In ChEMBL document CHEMBL1201862, “PubChem BioAssay data set” (2004) one finds IC50, CC50 and EC50 data, which are given here for six molecules.

Experiment [1] in a line: antiviral protection against BTV-induced cell death – arbovirus, BSR cells, confirmation (AID 1250).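 Note: protection from viral cytopathic effect measured as cell viability by ATP luminescence.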 Format: functional.
Experiment [2] is described as follows: A High Throughput Confirmatory Assay used to Identify Novel Compounds that Inhibit Mycobacterium Tuberculosis in the absence of Glycerol. The experiment is classed as functional.
Experiment [3] in a line: microbe, parasite or virus in culture. Conditions: Mycobacterium tuberculosis. Format: functional.
The target in experiment [4] is T1, Fatty acid synthase (Homo sapiens, UniProt P49327). Description: inhibition of human FAS-TE enzyme activity – biochemical, endpoint fluorescence intensity, uHTS hits, dose response (AID 624327).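 Note: fluorescence from hydrolysis of an O-methyl fluorescein acyl ester substrate by the enzyme.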 The experiment is classed as functional.
T1 sequence (P49327 whole entry): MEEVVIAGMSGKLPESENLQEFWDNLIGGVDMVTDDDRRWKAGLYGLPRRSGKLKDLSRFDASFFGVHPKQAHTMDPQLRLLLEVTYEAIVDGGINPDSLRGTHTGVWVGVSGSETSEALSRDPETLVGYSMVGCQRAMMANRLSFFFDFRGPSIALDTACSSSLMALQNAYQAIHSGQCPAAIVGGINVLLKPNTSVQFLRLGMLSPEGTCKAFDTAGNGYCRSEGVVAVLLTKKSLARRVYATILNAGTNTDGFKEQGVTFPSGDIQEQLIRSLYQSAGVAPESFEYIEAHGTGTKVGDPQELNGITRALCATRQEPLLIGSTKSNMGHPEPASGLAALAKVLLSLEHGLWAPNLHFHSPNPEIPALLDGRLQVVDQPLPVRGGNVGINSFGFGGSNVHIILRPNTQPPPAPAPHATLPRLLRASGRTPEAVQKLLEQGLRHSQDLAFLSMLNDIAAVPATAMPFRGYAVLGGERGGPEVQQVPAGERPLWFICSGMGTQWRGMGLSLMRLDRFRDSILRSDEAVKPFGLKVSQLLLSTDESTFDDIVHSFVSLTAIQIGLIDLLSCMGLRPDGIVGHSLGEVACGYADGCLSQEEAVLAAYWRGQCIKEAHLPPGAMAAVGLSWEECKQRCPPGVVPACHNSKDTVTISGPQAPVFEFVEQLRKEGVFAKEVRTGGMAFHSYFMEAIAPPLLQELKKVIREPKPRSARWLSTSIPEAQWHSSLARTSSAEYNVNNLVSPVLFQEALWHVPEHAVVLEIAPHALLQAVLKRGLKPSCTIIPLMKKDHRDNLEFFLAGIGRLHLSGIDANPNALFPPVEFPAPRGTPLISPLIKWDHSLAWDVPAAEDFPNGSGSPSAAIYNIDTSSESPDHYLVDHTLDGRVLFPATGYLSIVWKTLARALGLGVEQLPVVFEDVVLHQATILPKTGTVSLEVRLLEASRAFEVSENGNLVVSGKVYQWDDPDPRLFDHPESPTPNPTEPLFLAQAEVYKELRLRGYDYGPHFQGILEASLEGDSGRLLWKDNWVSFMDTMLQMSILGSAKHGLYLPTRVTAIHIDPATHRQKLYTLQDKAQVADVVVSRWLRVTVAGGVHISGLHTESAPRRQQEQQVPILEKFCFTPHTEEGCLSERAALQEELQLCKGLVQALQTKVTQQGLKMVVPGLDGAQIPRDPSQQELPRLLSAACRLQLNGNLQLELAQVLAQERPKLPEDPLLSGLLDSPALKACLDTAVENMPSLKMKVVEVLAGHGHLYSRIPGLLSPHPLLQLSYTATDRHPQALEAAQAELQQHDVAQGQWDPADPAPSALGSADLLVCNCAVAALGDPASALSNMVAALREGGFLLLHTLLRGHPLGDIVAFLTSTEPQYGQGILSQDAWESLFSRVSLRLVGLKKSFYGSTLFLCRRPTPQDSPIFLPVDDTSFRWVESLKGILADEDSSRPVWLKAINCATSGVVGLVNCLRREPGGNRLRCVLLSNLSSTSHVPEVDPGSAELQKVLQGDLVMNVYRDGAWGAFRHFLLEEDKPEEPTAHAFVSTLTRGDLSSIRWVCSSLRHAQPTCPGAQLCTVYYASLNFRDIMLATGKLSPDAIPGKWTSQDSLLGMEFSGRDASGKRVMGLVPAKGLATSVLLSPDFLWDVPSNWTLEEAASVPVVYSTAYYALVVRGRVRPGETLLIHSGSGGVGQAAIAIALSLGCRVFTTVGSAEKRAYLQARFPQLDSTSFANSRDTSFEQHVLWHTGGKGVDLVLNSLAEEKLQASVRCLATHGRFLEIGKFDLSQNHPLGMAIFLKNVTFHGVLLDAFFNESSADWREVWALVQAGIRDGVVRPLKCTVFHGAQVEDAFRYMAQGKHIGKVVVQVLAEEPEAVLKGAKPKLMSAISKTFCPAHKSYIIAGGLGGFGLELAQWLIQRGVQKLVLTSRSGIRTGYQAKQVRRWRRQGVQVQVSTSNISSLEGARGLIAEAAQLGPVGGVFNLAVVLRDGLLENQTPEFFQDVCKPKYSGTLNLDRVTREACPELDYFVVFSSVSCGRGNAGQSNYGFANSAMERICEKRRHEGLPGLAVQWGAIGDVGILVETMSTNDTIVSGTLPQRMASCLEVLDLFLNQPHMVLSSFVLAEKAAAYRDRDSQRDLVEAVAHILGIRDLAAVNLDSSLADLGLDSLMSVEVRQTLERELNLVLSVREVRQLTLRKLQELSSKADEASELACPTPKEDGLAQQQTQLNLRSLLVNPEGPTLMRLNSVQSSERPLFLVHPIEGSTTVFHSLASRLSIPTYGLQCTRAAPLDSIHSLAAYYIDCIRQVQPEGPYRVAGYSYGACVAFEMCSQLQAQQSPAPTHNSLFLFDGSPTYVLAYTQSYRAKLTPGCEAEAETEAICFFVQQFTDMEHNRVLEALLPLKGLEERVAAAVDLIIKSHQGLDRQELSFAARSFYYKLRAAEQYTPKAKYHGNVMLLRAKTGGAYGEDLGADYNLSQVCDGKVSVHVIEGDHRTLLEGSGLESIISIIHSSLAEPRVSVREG
Experiment [5] deals with T1, Fatty acid synthase. In words: inhibition of human FAS-TE enzyme activity – biochemical, kinetic fluorescence intensity, dose response (AID 624326).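 Note: rate of fluorescence rise from hydrolysis of a fluorogenic O-methyl fluorescein ester substrate.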 The experiment is classed as functional.
Experiment [6] can be described thus: Trypanosoma cruzi growth suppression in host cells – NIH3T3 host cells, beta-gal luminescence, confirmation (AID 2044).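 Note: intracellular parasites grown in NIH/3T3 mouse fibroblasts as host cells; luminescent beta-galactosidase reporter signal from transgenic T. cruzi replicating inside host cells; inhibitors lower the luminescence signal.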 Format: functional, cell-based.
Experiment [7] in a line: NIH3T3 cell viability loss – ATP luminescence, mouse fibroblasts, counter-screen, dose response (AID 2010).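 Note: cells exposed to compound for about 90 hours before reading.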 Format: functional, cell-based. A general note: The purpose of a counterscreen is to sort out artefacts and off-target activity.
The target of experiment [8] is T2, Bcl-2-related protein A1 (Mus musculus, UniProt Q07440).
T2 sequence (Q07440 whole entry): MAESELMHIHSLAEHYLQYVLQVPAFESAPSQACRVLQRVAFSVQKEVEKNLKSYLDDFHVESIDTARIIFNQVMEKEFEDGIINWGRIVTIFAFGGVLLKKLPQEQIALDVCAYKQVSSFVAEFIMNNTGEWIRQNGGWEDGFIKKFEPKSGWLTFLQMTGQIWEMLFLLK
Description: small-molecule antagonists of Bfl-1/BH3 interaction – biochemical, TR-FRET, mouse Bfl-1, confirmation (AID 621).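 Note: TR-FRET binding of GST-Bfl-1 to FITC-labelled Bid peptide via terbium antibody.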

Experiment [9] addresses T2, Bcl-2-related protein A1. Description: Bfl-1 binding inhibitors, SAR follow-up, biochemical, fluorescence polarization (AID 1070). In general terms: Fluorescence polarisation rises when a labelled molecule tumbles more slowly, as on binding a larger partner.
A further experiment concerns HEK293. Description: Fluorescence-based counterscreen for potentiators or agonists of NPY-Y2: cell-based high-throughput dose response assay to identify inhibitors of cyclic nucleotide gated ion channel (CNGC) activity. In this assay, the parental HEK293 cell line transfected with a cyclic-nucleotide gated ion channel (CNGC)-based cAMP sensor is used to measure inhibition of isoproterenol-induced CNGC activity by test compound. As to conditions: Homo sapiens. Format: functional.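 Note: stimulus is 1 µM isoproterenol at EC100 plus PDE inhibitor Ro 20-1724 at 25 µM.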

The target of experiment [10] is Neuropeptide Y receptor type 2 (Homo sapiens, UniProt P49146). Description: Fluorescence-based cell-based high-throughput dose response assay for agonists of NPY-Y2. [Related pubchem assays: 1703 (Screening assay (CNGC inhibitors).), 1359 (Screening assay (NPY-Y2 potentiators or agonists).), 1304 (Screening assay (NPY-Y1 potentiators or agonists).), 1710 (Screening assay (NPY-Y2 agonists).), 1791 (Summary AID.)]. The experiment is classed as functional.
Sequence of Neuropeptide Y receptor type 2 (P49146 whole entry): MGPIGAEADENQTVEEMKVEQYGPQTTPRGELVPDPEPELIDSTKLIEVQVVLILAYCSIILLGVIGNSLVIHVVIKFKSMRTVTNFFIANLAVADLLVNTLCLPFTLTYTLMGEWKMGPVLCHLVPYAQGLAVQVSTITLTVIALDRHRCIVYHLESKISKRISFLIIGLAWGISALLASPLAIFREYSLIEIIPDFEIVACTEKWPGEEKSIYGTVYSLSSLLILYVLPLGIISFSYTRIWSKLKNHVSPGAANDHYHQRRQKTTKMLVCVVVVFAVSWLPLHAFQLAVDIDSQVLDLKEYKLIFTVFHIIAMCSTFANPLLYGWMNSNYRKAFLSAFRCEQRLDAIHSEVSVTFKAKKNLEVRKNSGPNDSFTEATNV

Experiment [11] addresses Neuropeptide Y receptor type 1 (Homo sapiens, UniProt P25929). In words: Fluorescence-based counterscreen for agonists of NPY-Y2: cell-based high-throughput dose response assay for agonists of NPY-Y1. Format: functional.
The next experiment relates to Vero. In words: viability of Vero cells under compound – cytotoxicity control for flavivirus capping enzyme inhibitors (AID 588742). The experiment is classed as functional. Conditions: Chlorocebus sabaeus.
Experiment [12] has as its target Serine/threonine-protein phosphatase PP1-alpha catalytic subunit (Homo sapiens, UniProt P62136). In words: inhibition of protein phosphatase 1 activity – biochemical, fluorescence, dose response (AID 2394).
Experiment [13] addresses Serine/threonine-protein phosphatase (Homo sapiens, UniProt Q9BPW0). Description: inhibition of protein phosphatase 5 activity – biochemical, fluorescence, dose response (AID 2395).

What is called IC50 is the point on the concentration scale where inhibition reaches its midpoint. What is called EC50 is the concentration at which the effect is half-maximal.

Molecules are shown by their SMILES. The source made the active and inactive calls.

Sequence of Serine/threonine-protein phosphatase (Q9BPW0 whole entry): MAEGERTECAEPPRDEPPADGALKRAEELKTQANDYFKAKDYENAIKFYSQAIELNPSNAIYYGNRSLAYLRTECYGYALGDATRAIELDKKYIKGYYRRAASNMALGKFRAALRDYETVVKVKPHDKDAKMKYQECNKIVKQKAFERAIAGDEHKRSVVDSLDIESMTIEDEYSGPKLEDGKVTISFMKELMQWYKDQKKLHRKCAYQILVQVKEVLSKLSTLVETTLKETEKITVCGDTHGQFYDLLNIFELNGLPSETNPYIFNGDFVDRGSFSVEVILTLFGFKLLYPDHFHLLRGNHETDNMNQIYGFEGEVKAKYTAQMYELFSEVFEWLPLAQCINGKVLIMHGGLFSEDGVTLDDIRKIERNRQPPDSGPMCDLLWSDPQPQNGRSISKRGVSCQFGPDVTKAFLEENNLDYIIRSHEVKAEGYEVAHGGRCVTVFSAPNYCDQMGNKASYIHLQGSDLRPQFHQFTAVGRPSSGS
Sequence of Neuropeptide Y receptor type 1 (P25929 whole entry): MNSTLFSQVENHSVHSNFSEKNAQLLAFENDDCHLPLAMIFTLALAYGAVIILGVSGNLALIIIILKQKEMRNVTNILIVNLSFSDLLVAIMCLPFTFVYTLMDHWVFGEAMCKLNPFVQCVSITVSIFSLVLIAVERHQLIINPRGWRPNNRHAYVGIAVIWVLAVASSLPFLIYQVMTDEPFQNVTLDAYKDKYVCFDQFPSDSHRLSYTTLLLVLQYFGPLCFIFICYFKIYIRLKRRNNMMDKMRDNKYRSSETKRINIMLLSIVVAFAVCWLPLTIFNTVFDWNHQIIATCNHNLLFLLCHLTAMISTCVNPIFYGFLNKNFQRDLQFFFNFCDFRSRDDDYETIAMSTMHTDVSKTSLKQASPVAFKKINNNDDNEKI
Sequence of Serine/threonine-protein phosphatase PP1-alpha catalytic subunit (P62136 whole entry): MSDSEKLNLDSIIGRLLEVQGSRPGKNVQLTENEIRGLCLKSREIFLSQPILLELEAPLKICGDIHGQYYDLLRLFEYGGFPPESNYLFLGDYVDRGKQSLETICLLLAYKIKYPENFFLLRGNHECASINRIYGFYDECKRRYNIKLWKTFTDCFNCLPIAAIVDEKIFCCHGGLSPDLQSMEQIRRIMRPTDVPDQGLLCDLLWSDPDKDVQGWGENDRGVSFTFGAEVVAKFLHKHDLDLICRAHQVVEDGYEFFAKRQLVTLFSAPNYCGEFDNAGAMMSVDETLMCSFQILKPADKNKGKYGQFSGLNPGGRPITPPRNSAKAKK

Take `CCOC(=O)c1cc2c(N)c(C(=O)c3ccc(Br)cc3)sc2nc1O`: the half-inhibitory concentration (IC50) in experiment [1] was 34 µM (active).

Consider `Fc1nc(F)c(F)c(NCCCNc2c(F)c(F)nc(F)c2F)c1F`, for which the half-maximal inhibitory concentration (IC50) in [2] was > 100 µM (active); on Fatty acid synthase [4], 26 µM (inactive); on Fatty acid synthase [5] it was 7.19 µM (active). In addition, the CC50 in experiment [3] was 24 µM (active).

Turning to `CCN(CC(=O)NCc1cccs1)C(=O)c1ccc([N+](=O)[O-])o1`, the concentration giving a half-maximal response (EC50) was < 0.1 µM (active) in experiment [6], > 30 µM (not active) in experiment [7] and 0.047 µM (active) in the experiment “cells”.

Regarding `COc1ncccc1-c1nnn(-c2ccc(Cl)c(Cl)c2)n1`, the concentration for half-maximal inhibition (IC50) against Bcl-2-related protein A1 [8] and on Bcl-2-related protein A1 [9] was > 100 µM (not active) throughout.

Turning to `O=S(=O)(c1cccc(NC(=S)N2CCN(c3cccc(Cl)c3)CC2)c1)C(F)F`, the EC50 (in the experiment with HEK293; in experiment [10]; in experiment [11]) was > 35.4 µM (not active) in each case. In addition, the CC50 in the experiment on Vero is > 40 µM (active).

With `Cc1nnc(NC(=O)C2C3C=CC(O3)C2C(=O)O)s1` (stereo unspecified), the IC50 in experiment [12] and in experiment [13] was > 67 µM (not active) throughout.
